Experimental data from PubChem BioAssay (NCI).
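Protocol summary: plate cells (96-well), add compound at 5 concentrations, incubate 48 h, interpolate endpoints linearly. The concentration for full growth arrest is given as TGI.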

What was measured:
Test in all cases: NCI anticancer screen, dose series, 48 h
[1] = test system: 786-0 renal
[2] = test system: A498 renal
[3] = test system: A549 NSCLC
[4] = test system: ACHN renal
[5] = test system: CAKI-1 renal
[6] = test system: COLO 205 colon
[7] = test system: DLD-1 colon
[8] = test system: DMS 114 small cell lung
[9] = test system: DMS 273 small cell lung
[10] = test system: EKVX NSCLC
[11] = test system: HCC-2998 colon
[12] = test system: HCT-116 colon
[13] = test system: HCT-15 colon
[14] = test system: HL-60(TB) leukemia
[15] = test system: HOP-18 NSCLC
[16] = test system: HOP-62 NSCLC
[17] = test system: HOP-92 NSCLC
[18] = test system: HT29 colon
[19] = test system: IGROV1 ovarian
[20] = test system: K-562 leukemia
[21] = test system: KM12 colon
[22] = test system: KM20L2 colon
[23] = test system: LOX IMVI melanoma
[24] = test system: LXFL 529 NSCLC
[25] = test system: M14 melanoma
[26] = test system: M19-MEL melanoma
[27] = test system: MALME-3M melanoma
[28] = test system: MOLT-4 leukemia
[29] = test system: NCI-H226 lung
[30] = test system: NCI-H23 lung
[31] = test system: NCI-H460 lung
[32] = test system: NCI-H522 lung
[33] = test system: OVCAR-3 ovarian
[34] = test system: OVCAR-4 ovarian
[35] = test system: OVCAR-5 ovarian
[36] = test system: OVCAR-8 ovarian
[37] = test system: RPMI-8226 leukemia
[38] = test system: RXF 393 renal
[39] = test system: RXF-631 renal
[40] = test system: SF-268 CNS
[41] = test system: SF-295 CNS
[42] = test system: SF-539 CNS
[43] = test system: SK-MEL-28 melanoma
[44] = test system: SK-MEL-5 melanoma
[45] = test system: SK-OV-3 ovarian
[46] = test system: SN12C renal
[47] = test system: SNB-19 CNS
[48] = test system: SNB-75 CNS
[49] = test system: SNB-78 CNS
[50] = test system: SW-620 colon
[51] = test system: TK-10 renal
[52] = test system: U251 CNS
[53] = test system: UACC-257 melanoma
[54] = test system: UACC-62 melanoma
[55] = test system: UO-31 renal
[56] = test system: XF 498 CNS
[57] = test system: CCRF-CEM leukemia
[58] = test system: SK-MEL-2 melanoma

Measured: TGI

O=C(Nc1ccccc1[N+](=O)[O-])c1ccccc1
> 100 µM: [1] | [2] | [3] | [4] | [5] | [6] | [7] | [8] | [9] | [10] | [11] | [12] | [13] | [14] | [15] | [16] | [17] | [18] | [19] | [20] | [21] | [22] | [23] | [24] | [25] | [26] | [27] | [28] | [29] | [30] | [31] | [32] | [33] | [34] | [35] | [36] | [37] | [38] | [39] | [40] | [41] | [42] | [43] | [44] | [45] | [46] | [47] | [48] | [49] | [50] | [51] | [52] | [53] | [54] | [55] | [56]

CC1=CCCC(OC(N)=O)C1 (stereo not given)
> 100 µM: [1] | [2] | [3] | [4] | [5] | [57] | [6] | [7] | [9] | [10] | [11] | [12] | [13] | [14] | [15] | [16] | [17] | [18] | [19] | [20] | [21] | [22] | [23] | [24] | [25] | [26] | [27] | [28] | [30] | [31] | [33] | [34] | [35] | [36] | [37] | [38] | [39] | [40] | [41] | [42] | [58] | [44] | [45] | [46] | [47] | [48] | [49] | [50] | [51] | [52] | [53] | [54] | [55] | [56]
